1 substance from patent US11617356B2, “Mouse lymphoma cell line and animal model of human high grade B-cell lymphoma” (PÉCSI TUDOMÁNYEGYETEM, priority 2015, dated 2023) can be followed below.

The test system of this assay is Bc-DLFL.1 cells. Kind of assay: short-term in vitro survival of Bc-DLFL.1 cells on addition of recombinant BAFF. It counts as cell-based, mouse. The conditions noted are these: addition of recombinant BAFF to culture; data not shown. An excerpt: The specific conditions needed to propagate Bc-DLFL.1 raised the dependence of this lymphoma for tissue-derived factors for survival. The most likely candidates are the different receptors for BAFF. […] In normal B-cell development, TACI and BCMA is expressed following activation during plasmacytic differentiation, while BAFF-R disappears. BAFF-R is more characteristic of mature resting B-cells.

On to “recombinant BAFF: recombinant BAFF, ligand of BAFF-R, BCMA and TACI, added to Bc-DLFL.1 cells in vitro”, for which the “short-term in vitro survival of Bc-DLFL.1 cells” value is reported as “moderately increased”.
